# Target: truncated form of human NaV 1.8 with full channel activity (Homo sapiens, UniProt Q9Y5Y9)
# Assay: E-VIPR Assay Method B for detecting and measuring Nav inhibition (HEK cells, membrane potential FRET dyes, electrical stimulation)
# Format: cell-based
# Conditions: HEK cells expressing human NaV 1.8, Table 20B, read-out: Nav 1.8 MedChem Optical Assay EVIPR Assay Method B HS IC50
# Description: [formula] where X is the ratio response of the test compound. […] E-VIPR Assay Method B for Detecting and Measuring Nav Inhibition Properties Sodium ion channels are voltage-dependent proteins that can be activated by inducing membrane voltage changes by applying electric fields. The electrical stimulation instrument and methods of use, referred to as E-VIPR, are described in International Publication No. WO 2002/008748 A3 and C.-J. Huang et al. Characterization of voltage-gated sodium channel blockers by electrical stimulation and fluorescence detection of membrane potential, 24 Nature Biotech. 439-46 (2006), both of which are incorporated by reference in their entirety. The instrument comprises a microtiter plate handler, an optical system for exciting the coumarin dye while simultaneously recording the coumarin and oxonol emissions, a waveform generator, a current- or voltage-controlled amplifier, and parallel electrode pairs that are inserted into assay plate wells. Under integrated computer control, this instrument passes user-programmed electrical stimulus protocols to cells within the wells of the microtiter plate. […] Sigma #F4135), 1% NEAA (Non-Essential Amino Acids, Life Tech #11140), 1% HEPES (Life Tech #15630), 1% Pen-Strep (Penicillin-Streptomycin; […] Cells were expanded in vented cap flasks, with 95% humidity and 5% CO2. Reagents and Stock Solutions: • 100 mg/mL Pluronic F-127 (Sigma #P2443), in dry DMSO • Compound Plates: […] 5% KIR 2.1 Bacmam virus (produced in-house), prepared as described in Section 3.3 of J. A. Fornwald et al., Gene Expression in Mammalian Cells Using BacMam, a Modified Baculovirus System, 1350 Methods in Molecular Biology 95-116 (2016), the entire contents of which are incorporated by reference. • 5 mM DiSBAC6(3) (a voltage sensitive oxonol acceptor) (Aurora #00-100-010) in dry DMSO • 5 mM CC2-DMPE (a membrane-bound coumarin phospholipid FRET donor) (Aurora #00-100-008) in dry DMSO • 89 mM VABSC-1 in H2O. […] The solution was made by adding 10% Pluronic F127 stock equal to combined volumes of CC2-DMPE and DiSBAC6(3). The order of preparation was first mix Pluronic and CC2-DMPE, then add DiSBAC6(3), then while vortexing add Bath1/β-Cyclodextrin. […] Assay Protocol: […] Final DMSO concentration for all wells in the assay was 0.625% (0.75% DMSO was supplemented to the Compound Loading Buffer for a final DMSO concentration of 0.625%). 2) Hexyl Dye Solution was prepared. 3) Cell plates were prepared. On the day of the assay, the media was aspirated, and the cells were washed three times with 80 μL of Bath-1 buffer, maintaining 25 μL residual volume in each well. 4) 25 μL per well of Hexyl Dye Solution was dispensed into the cell plates. The cells were incubated for 20 minutes at room temp or ambient conditions in darkness. 5) 80 μL per well of Compound Loading Buffer was dispensed into compound plates. […] The mixture was incubated for 30 minutes at room temp/ambient conditions. […] A pre-stimulus recording was performed for 0.5 seconds to obtain the un-stimulated intensities baseline. The stimulatory waveform was followed by 0.5 seconds of post-stimulation recording to examine the relaxation to the resting state. Data Analysis: Data were analyzed and reported as normalized ratios of emission intensities measured in the 460 nm and 580 nm channels. The response as a function of time was reported as the ratios obtained using the following formula: [formula] The data were further reduced by calculating the initial (Ri) and final (Rf) ratios. These were the average ratio values during part or all of the pre-stimulation period and during sample points during the stimulation period. The fluorescence ratio (Rf/Ri) was then calculated and reported as a function of time. Control responses were obtained by performing assays in the presence of the positive control, and in the absence of pharmacological agents (DMSO vehicle negative control). Responses to the negative (N) and positive (P) controls were calculated as above. […]
# truncated form of human NaV 1.8 with full channel activity, sequence (Q9Y5Y9 126-1722 limits assumed): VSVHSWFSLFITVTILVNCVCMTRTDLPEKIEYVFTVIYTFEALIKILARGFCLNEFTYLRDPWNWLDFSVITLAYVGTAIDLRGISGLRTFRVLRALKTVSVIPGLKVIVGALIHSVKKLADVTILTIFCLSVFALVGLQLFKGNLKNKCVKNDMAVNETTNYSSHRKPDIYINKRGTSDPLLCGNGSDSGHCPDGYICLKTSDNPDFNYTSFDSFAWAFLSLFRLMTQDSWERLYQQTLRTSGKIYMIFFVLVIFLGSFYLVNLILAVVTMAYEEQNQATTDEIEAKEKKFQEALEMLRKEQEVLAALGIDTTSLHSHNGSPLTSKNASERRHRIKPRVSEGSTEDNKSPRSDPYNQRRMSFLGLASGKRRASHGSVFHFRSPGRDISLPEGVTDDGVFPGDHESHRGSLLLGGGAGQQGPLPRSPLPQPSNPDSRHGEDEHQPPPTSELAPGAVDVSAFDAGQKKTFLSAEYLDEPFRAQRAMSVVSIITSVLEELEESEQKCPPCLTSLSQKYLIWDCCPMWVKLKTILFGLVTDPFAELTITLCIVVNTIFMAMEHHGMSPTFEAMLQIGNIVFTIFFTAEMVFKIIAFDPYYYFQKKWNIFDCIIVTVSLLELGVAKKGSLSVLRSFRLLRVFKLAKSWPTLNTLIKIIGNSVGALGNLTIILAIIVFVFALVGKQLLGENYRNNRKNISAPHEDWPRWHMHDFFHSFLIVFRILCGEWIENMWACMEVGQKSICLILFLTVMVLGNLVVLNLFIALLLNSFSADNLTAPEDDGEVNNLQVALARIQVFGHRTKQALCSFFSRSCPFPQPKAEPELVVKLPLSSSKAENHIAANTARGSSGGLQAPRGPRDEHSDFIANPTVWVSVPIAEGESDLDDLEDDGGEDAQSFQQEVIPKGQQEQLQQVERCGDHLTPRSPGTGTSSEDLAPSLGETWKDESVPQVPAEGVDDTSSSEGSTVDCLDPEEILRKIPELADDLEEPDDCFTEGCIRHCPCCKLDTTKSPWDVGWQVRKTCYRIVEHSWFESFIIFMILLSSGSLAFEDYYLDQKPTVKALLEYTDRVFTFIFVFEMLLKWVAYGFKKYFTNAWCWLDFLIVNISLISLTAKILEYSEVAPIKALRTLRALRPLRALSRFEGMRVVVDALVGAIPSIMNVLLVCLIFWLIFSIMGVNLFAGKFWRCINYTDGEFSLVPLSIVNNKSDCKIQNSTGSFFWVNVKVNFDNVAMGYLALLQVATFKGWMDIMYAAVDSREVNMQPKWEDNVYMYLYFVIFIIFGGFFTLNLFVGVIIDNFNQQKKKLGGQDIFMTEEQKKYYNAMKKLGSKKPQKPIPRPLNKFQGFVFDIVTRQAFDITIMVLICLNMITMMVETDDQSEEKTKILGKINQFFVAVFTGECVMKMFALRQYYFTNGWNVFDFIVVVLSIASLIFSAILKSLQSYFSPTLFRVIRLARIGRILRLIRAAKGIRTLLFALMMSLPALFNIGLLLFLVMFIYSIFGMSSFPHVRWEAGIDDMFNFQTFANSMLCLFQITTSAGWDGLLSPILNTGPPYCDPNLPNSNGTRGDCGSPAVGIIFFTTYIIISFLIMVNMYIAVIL
row,Compound,IC50 [nM]
1,"COc1cc(Cl)ccc1Oc1cc(C(F)(F)F)ccc1C(=O)Nc1cccc(C(N)=O)c1 [Compound 302, N-(3-carbamoylphenyl)-2-[4-chloro-2-(methoxy)phenoxy]-4-(trifluoromethyl)benzamide]",26
2,"COc1ccc(Oc2cc(Cl)c(Cl)cc2C(=O)Nc2cccc(C(N)=O)c2)c(F)c1 [Compound 273, N-(3-carbamoylphenyl)-4,5-dichloro-2-(2-fluoro-4-methoxy-phenoxy)benzamide]",30
3,"COc1cc(F)ccc1Oc1cc(Cl)c(Cl)cc1C(=O)Nc1ccc(C(N)=O)cc1 [Compound 274, N-(4-carbamoylphenyl)-4,5-dichloro-2-(4-fluoro-2-methoxy-phenoxy)benzamide]",2
4,"COc1ccc(Oc2cc(C(F)(F)F)ccc2C(=O)Nc2cccc(C(N)=O)c2)c(Cl)c1 [Compound 299, N-(3-carbamoylphenyl)-2-[2-chloro-4-(methoxy)phenoxy]-4-(trifluoromethyl)benzamide]",130
5,"NC(=O)c1ccc(NC(=O)c2c(Oc3ccc(F)cc3Cl)cccc2C(F)(F)F)cn1 [Compound 256, 5-[[2-(2-chloro-4-fluoro-phenoxy)-6-(trifluoromethyl)benzoyl]amino]pyridine-2-carboxamide]",550
6,"Cc1ccc(C(N)=O)cc1NC(=O)c1c(Oc2ccc(F)cc2Cl)cccc1C(F)(F)F [Compound 255, N-(5-carbamoyl-2-methylphenyl)-2-(2-chloro-4-fluorophenoxy)-6-(trifluoromethyl)benzamide]",7200
7,"NC(=O)c1cccc(NC(=O)c2cc(Cl)c(Cl)cc2Oc2ccc(OC(F)(F)F)cc2)c1 [Compound 272, N-(3-carbamoylphenyl)-4,5-dichloro-2-[4-(trifluoromethoxy)phenoxy]benzamide]",8
8,"NC(=O)c1cccc(NC(=O)c2cc(Cl)c(Cl)cc2Oc2ccc(F)cc2)c1 [Compound 268, N-(3-carbamoylphenyl)-4,5-dichloro-2-(4-fluorophenoxy)benzamide]",14
9,"NC(=O)c1cccc(NC(=O)c2cc(C(F)(F)F)ccc2Oc2ccccc2OC(F)F)c1 [Compound 285, N-(3-carbamoylphenyl)-2-(2-(difluoromethoxy)phenoxy)-5-(trifluoromethyl)benzamide]",72
10,"COc1ccc(Oc2cc(C(F)(F)C(F)(F)F)ccc2C(=O)Nc2cccc(C(N)=O)c2)c(Cl)c1 [Compound 251, N-(3-carbamoylphenyl)-2-(2-chloro-4-methoxyphenoxy)-4-(1,1,2,2,2-pentafluoroethyl)benzamide]",91
11,"COc1ccc(Oc2cc(C(F)(F)C(F)(F)F)ccc2C(=O)Nc2cccc(C(N)=O)c2)cc1F [Compound 250, N-(3-carbamoylphenyl)-2-(3-fluoro-4-methoxyphenoxy)-4-(1,1,2,2,2-pentafluoroethyl)benzamide]",65
12,"NC(=O)c1cccc(NC(=O)c2c(Oc3ccc(F)cc3)cccc2C(F)(F)F)c1 [Compound 257, N-(3-carbamoylphenyl)-2-(4-fluorophenoxy)-6-(trifluoromethyl)benzamide]",415
13,"CC(C)(C)c1ccc(C(=O)Nc2ccnc(C(N)=O)c2)c(Oc2ccc(C(F)(F)F)nc2)c1 [Compound 266, 4-(4-(tert-butyl)-2-((6-(trifluoromethyl)pyridin-3-yl)oxy)benzamido)picolinamide]",17000
14,"COc1cc(F)ccc1Oc1cccc(C(F)(F)F)c1C(=O)Nc1cccc(C(N)=O)c1 [Compound 259, N-(3-carbamoylphenyl)-2-(4-fluoro-2-methoxyphenoxy)-6-(trifluoromethyl)benzamide]",65
15,"NC(=O)c1cccc(NC(=O)c2ccc(C(F)(F)C(F)(F)F)cc2Oc2ccc(F)cc2)c1 [Compound 249, N-(3-carbamoylphenyl)-2-(4-fluorophenoxy)-4-(1,1,2,2,2-pentafluoroethyl)benzamide]",60
16,"COc1cc(F)ccc1Oc1cc(Cl)c(Cl)cc1C(=O)Nc1cccc(C(N)=O)c1 [Compound 270, N-(3-carbamoylphenyl)-4,5-dichloro-2-(4-fluoro-2-methoxy-phenoxy)benzamide]",9

# Now from value to compound:
row,IC50 [nM],Compound
1,33,"Cc1cc(F)ccc1Oc1ccc(C(F)(F)F)cc1C(=O)Nc1ccc(Cl)c(C(N)=O)c1 [Compound 293, N-(3-carbamoyl-4-chlorophenyl)-2-(4-fluoro-2-methylphenoxy)-5-(trifluoromethyl)benzamide]"
2,37,"Cc1cc(F)ccc1Oc1ccc(C(F)(F)F)cc1C(=O)Nc1ccc(C)c(C(N)=O)c1 [Compound 294, N-(3-carbamoyl-4-methylphenyl)-2-(4-fluoro-2-methylphenoxy)-5-(trifluoromethyl)benzamide]"
3,1400,"Cc1cc(F)ccc1Oc1ccc(C(F)(F)F)cc1C(=O)Nc1cccc(C(N)=O)c1C [Compound 291, N-(3-carbamoyl-2-methylphenyl)-2-(4-fluoro-2-methylphenoxy)-5-(trifluoromethyl)benzamide]"
4,270,"COc1ccc(NC(=O)c2cc(C(F)(F)F)ccc2Oc2ccc(F)cc2C)cc1C(N)=O [Compound 292, N-(3-carbamoyl-4-methoxyphenyl)-2-(4-fluoro-2-methylphenoxy)-5-(trifluoromethyl)benzamide]"
5,84,"COc1ccccc1Oc1ccc(C(F)(F)F)cc1C(=O)Nc1cccc(C(N)=O)c1 [Compound 287, N-(3-carbamoylphenyl)-2-(2-methoxyphenoxy)-5-(trifluoromethyl)benzamide]"
6,130,"CC(C)Oc1ccccc1Oc1ccc(C(F)(F)F)cc1C(=O)Nc1cccc(C(N)=O)c1 [Compound 282, N-(3-carbamoylphenyl)-2-(2-isopropoxyphenoxy)-5-(trifluoromethyl)benzamide]"
7,14,"COc1cc(F)ccc1Oc1cc(C(F)(F)F)ccc1C(=O)Nc1cccc(C(N)=O)c1 [Compound 298, N-(3-Carbamoylphenyl)-2-[4-fluoro-2-(methoxy)phenoxy]-4-(trifluoromethyl)benzamide]"
8,43,"Cc1cc(Cl)ccc1Oc1ccc(C(F)(F)F)cc1C(=O)Nc1cccc(C(N)=O)c1 [Compound 284, N-(3-carbamoylphenyl)-2-(4-chloro-2-methylphenoxy)-5-(trifluoromethyl)benzamide]"
9,260,"NC(=O)c1cc(NC(=O)c2c(Oc3ccc(F)cc3Cl)cccc2C(F)(F)F)ccc1Cl [Compound 254, N-(3-carbamoyl-4-chlorophenyl)-2-(2-chloro-4-fluorophenoxy)-6-(trifluoromethyl)benzamide]"
10,34,"COc1cc(F)ccc1Oc1ccc(C(F)(F)F)cc1C(=O)Nc1cccc(C(N)=O)c1 [Compound 288, N-(3-carbamoylphenyl)-2-(4-fluoro-2-methoxyphenoxy)-5-(trifluoromethyl)benzamide]"
11,18,"Cc1cc(F)ccc1Oc1ccc(C(F)(F)F)cc1C(=O)Nc1cccc(C(N)=O)c1 [Compound 296, N-(3-carbamoylphenyl)-2-(4-fluoro-2-methylphenoxy)-5-(trifluoromethyl)benzamide]"
12,98,"NC(=O)c1cccc(NC(=O)c2cc(C(F)(F)F)ccc2Oc2ccc(F)cc2)c1 [Compound 276, N-(3-carbamoylphenyl)-2-(4-fluorophenoxy)-5-(trifluoromethyl)benzamide]"
13,40,Cc1cc(F)ccc1Oc1ccc(C(F)(F)F)cc1C(=O)Nc1ccc(C(N)=O)cc1 [Compound 297]
14,21,"COc1c(F)cccc1Oc1ccc(C(F)(F)F)cc1C(=O)Nc1cccc(C(N)=O)c1 [Compound 278, N-(3-carbamoylphenyl)-2-(3-fluoro-2-methoxyphenoxy)-5-(trifluoromethyl)benzamide]"
